Measurements reported in the supplement of paper PMC10307832.

Experiments:
Test in all cases: relative viability (nuclei count vs DMSO), 5 days (fraction); higher = more cells survive
[1] = compound: C1CC2=C(C1)C=C(C=C2)OC3=NC(=C4C(=N3)N(C=N4)CC5=CC=C(C=C5)C6=CC=CC=C6)N[C@@H](CC7=CC=CC=C7)CO [QS11] + Nc1nc2[nH]cc(CCc3ccc(C(=O)N[C@@H](CCC(=O)O)C(=O)O)cc3)c2c(=O)[nH]1 [Pemetrexed] (partner 0.2 µM)
Method in brief: (§1)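 One day after seeding in 1536-well plates, lung cancer cell lines were dosed by pin tool. Dosing was either single-drug or a fixed anchor-drug dose plus five library-drug doses (not always all listed) in √10 steps. After 5 days, nuclei were stained in one fix-and-stain step and counted on 4× images, and relative viability is the nuclei count of treated wells over that of vehicle wells, given as the median of duplicate plates.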

[2] = compound: CC1=C(C=C(C=C1)NC(=O)C2=CC(=CC=C2)C(C)(C)C#N)NC3=CC4=C(C=C3)N=CN(C4=O)C [AZ628] + NC(=O)Nc1cc(-c2cccc(F)c2)sc1C(=O)N[C@H]1CCCNC1 [AZD7762] (partner 0.2 µM)
Method in brief: as §1

[3] = compound: C[As](C)SC[C@H](NC(=O)CC[C@H](N)C(=O)O)C(=O)NCC(=O)O [Darinaparsin] + COc1cc2c(Oc3ccc(NC(=O)C4(C(=O)Nc5ccc(F)cc5)CC4)cc3F)ccnc2cc1OCCCN1CCOCC1 [Foretinib] (partner 0.25 µM)
Method in brief: as §1

[4] = compound: C[As](C)SC[C@H](NC(=O)CC[C@H](N)C(=O)O)C(=O)NCC(=O)O [Darinaparsin] + Cc1nc(Nc2ncc(C(=O)Nc3c(C)cccc3Cl)s2)cc(N2CCN(CCO)CC2)n1 [Dasatinib] (partner 0.075 µM)
Method in brief: as §1

Row | Cell Line | relative viability ([1]; first compound 0.08 µM) | relative viability ([1]; first compound 0.253 µM) | relative viability ([1]; first compound 0.8 µM) | relative viability ([1]; first compound 2.53 µM) | relative viability ([1]; first compound 8 µM) | relative viability ([2]; first compound 0.08 µM) | relative viability ([2]; first compound 0.253 µM) | relative viability ([2]; first compound 0.8 µM) | relative viability ([2]; first compound 2.53 µM) | relative viability ([2]; first compound 8 µM) | relative viability ([3]; first compound 0.08 µM) | relative viability ([3]; first compound 0.8 µM) | relative viability ([3]; first compound 2.53 µM) | relative viability ([3]; first compound 8 µM) | relative viability ([4]; first compound 0.08 µM) | relative viability ([4]; first compound 0.8 µM) | relative viability ([4]; first compound 2.53 µM) | relative viability ([4]; first compound 8 µM)
1 | NCI-H2085 | 0.879 | 0.841 | 0.925 | 1.04 | 1.01 | 0.997 | 0.925 | 1.04 | 1.01 | 0.566 | 1.12 | 0.975 | 0.863 | 0.902 | 0.238 | 0.25 | 0.235 | 0.223
2 | NCI-H1793 | 0.725 | 0.777 | 1.11 | 1.1 | 0.85 | 0.52 | 0.244 | 0.419 | 0.319 | 0.177 | 0.766 | 0.77 | 0.524 | 0.829 | 0.421 | 0.366 | 0.348 | 0.424
3 | HCC-366 | 0.163 | 0.139 | – | 0.175 | 0.136 | 0.248 | 0.193 | 0.235 | 0.207 | 0.149 | 0.905 | 0.91 | 0.965 | 1.14 | 0.709 | 0.758 | 0.734 | 1.07
4 | NCI-H596 | 0.456 | 0.468 | 0.507 | 0.528 | 0.476 | 1.11 | 1.08 | 1.02 | 1.17 | 0.915 | 0.906 | 0.974 | 0.734 | 0.67 | 0.624 | 0.625 | 0.632 | 0.566
5 | NCI-H2126 | 0.623 | 0.681 | 0.604 | 0.565 | 0.59 | 1.08 | 0.945 | 0.775 | 1.01 | 0.984 | 1.17 | 1.1 | 1.05 | 1.13 | 0.56 | 0.616 | 0.556 | 0.681
